{
  "source": "patent EP2769738B1",
  "about": "“Conjugated TLR7 and/or TLR8 and TLR2 polycationic agonists” (Invivogen, priority 2013, dated 2014)",
  "key": {"B16-F1 tumor": {"system": "B16-F1 tumor", "assay": "Mouse B16-F1 tumor model, molecule alone", "assay_type": "in vivo, C57BL/6 mice", "settings": "intra-tumoral, 3 injections", "method": "Measurements were performed under gas anesthesia.\nThe second group received intra-tumoral injections of CL413 molecule alone (a TLR7-TLR2 Pam2CSK4-based molecule). Third and forth groups received intra-tumoral injections of the TLR2 ligand, Pam2CSK4 alone, and the TLR7 ligand alone, respectively. A fifth group received a combined treatment of Pam2CSK4 and TLR7 ligand, in solution at the equivalent molecule quantity of the respective TLR2 and TLR7 moieties in CL413 (in 100µl Bionolyte G5® with Pluronic® F-68 2%) for a total of 3 injections."}, "B16-F1 cells": {"system": "B16-F1 cells", "assay": "Cell transfection with SEAP plasmid, B16-F1", "assay_type": "cell-based, mouse", "settings": "Figure 5B; in complex with pVitro14 LGFP SEAP plasmid, 48 hours, SEAP reporter gene expression", "method": "(§1) The TLR7-TLR2 molecules were tested for their ability as polyamine molecules to transport plasmid DNA (pDNA) into cells. The pVitro14 LGFP SEAP plasmid (InvivoGen) was complexed to TLR7-TLR2 polyamine molecules and to the control cationic lipid transfection agent, LyoVec™ (InvivoGen). The human HEK293 (ATCC, CRL-1573) and mouse B16-F1 melanoma (ATCC, CRL-6323) cell lines were seeded at a density of 50 000 cells/well and 20 000 cells/well respectively, in the absence or presence of different volumes of the plasmid encoding for the SEAP protein in complex with TLR7-TLR2 polyamine molecules for 48 hours at 37°C and 10% CO2. Transfection efficiency was assessed by measuring SEAP reporter gene expression: 20 µl of supernatant was sampled and mixed with 180 µl of QUANTI-Blue™ Detection (InvivoGen). In the presence of alkaline phosphatase SEAP, the color of QUANTI-Blue™ changes from pink to purple/blue. The intensity of the blue hue reflects the activity of SEAP. The levels of SEAP secretion were determined quantitatively by reading the OD at 620-655 nm using a spectrophotometer, iMark™ Microplate Reader (BIO-RAD)."}, "HEK293 cells": {"system": "HEK293 cells", "assay": "Cell transfection with SEAP plasmid, HEK293", "assay_type": "cell-based, human", "settings": "Figure 5A; in complex with pVitro14 LGFP SEAP plasmid, 48 hours, SEAP reporter gene expression", "method": "as §1"}, "[1]": {"assay": "Determination of nanoparticle (lipoplex) size by dynamic light scattering", "assay_type": "physicochemical", "settings": "ratio 3:24 (w:w); for Conformity (C)/ Non-conformity (NC) / Mean Diameter (nm): complexes with pDNA; for Mean Diameter (nm): dynamic light scattering at 25°C; for Mean Diameter (nm) / PDI: triplicate measurements; for PDI: polydispersity index of complexes with pDNA, 25°C", "method": "• 1. Preparative HPLC Method: Unless otherwise indicated, the compounds described herein were purified by RP-MPLC ARMEN® Spot Flash Liquid Chromatography (ARMEN Instrument, Saint Ave, France) on a preparative column (SVF D26) packed with 25-40 µm C18 resin (Merck chimie SAS), by applying a linear gradient of 0-10% MeCN in NH4OAc (10 mM) solution (pH = 9) over 60 min at a 15 mL/min flow rate. The purification was monitored at 254 nm. Suitable fractions were pooled and lyophilised. • 2. Proton NMR Spectra: Unless otherwise indicated, all ^1H NMR spectra were run on a Bruker series 300 MHz instrument. Where so characterized, all observed protons are reported as parts-per-million (ppm) downfield from tetramethylsilane (TMS) or other internal reference in the appropriate solvent indicated. NMR spectra were recorded on a Brucker 300 spectrometer. For ^1H (300 MHz) spectra δ values were referenced to CDCI3-d1 (7.26 ppm), DMSO- d6 (2.50 ppm), D2O-d2 (4.79 ppm) or MeOD-d4 (3.31 ppm). The peak patterns are indicated as follows: s: singlet, sl: large singlet, d: doublet, t: triplet, q: quartet, m: multiplet. • 3. Mass Spectra (MS): Analyses were run on an Agilent Model 6130 quadrupole MS. Unless otherwise indicated, all mass spectral data for starting materials, intermediates and/or exemplary compounds are reported as mass/charge (m/z), having an (M+H)^+ molecular ion. The molecular ion reported was obtained by electrospray detection method (commonly referred to as an ESI MS). Compounds having an isotopic atom, such as bromine and the like, are generally reported according to the detected isotopic pattern, as appreciated by those skilled in the art. • 4. Particle size: Particle size was determined using a Malvern Nanosizer (Malvern, Worcestershire, UK) and Malvern ZETASIZER.RTM. (Malvern, Worcestershire, UK). • 5. Naming Convention The compounds disclosed and described herein have been named using the naming convention provided with Chem-Draw Ultra 11.0 software, available in Chem. Office. In some instances, compounds were named with the term \"spermine\" inserted where appropriate. For example, where the spermine is substituted with Boc, \"N1,N5,N10-TriBoc-spermine\" is added to the Chem-Draw nomenclature in the appropriate place. Chem-Draw utilizes the ISIS Draw software compound naming convention, as appreciated by those skilled in the art.\nFor pDNA:TLR7-TLR2 polyamine molecules complexes, a ratio pDNA:TLR7-TLR2 polyamine molecules of 3:24 (w:w) was prepared in serum-free culture medium or in 5% glucose. The TLR7-TLR2 conjugated compound of interest was prediluted in serum-free culture medium or in 5% glucose and incubated for 5 minutes at room temperature, prior to the addition of an endotoxin-free, salt-free preparation of pDNA. In these experiments, the pBsr2pCpGLacZh plasmid was used in the pDNA:TLR7-TLR2 polyamine molecule complexes. The pDNA:TLR7-TLR2 polyamine molecule mixtures were incubated at room temperature for 30 minutes to allow the formation of the complex. The control used in these experiments was the cationic lipid transfection agent LyoVec™ (InvivoGen) prepared in a similar manner.\nIn order to confirm that TLR7-TLR2 polyamine molecules complex DNA, lipoplex size was determined. The physical characterization of complex was achieved by dynamic light scattering using the analytical equipment for laser diffraction Zetasizer Nano-ZS (Malvern). pDNA:TLR7-TLR2 polyamine molecule complexes were prepared as described above. Subsequently, 50µl of pDNA: TLR7-TLR2 polyamine molecule complexes were placed into a disposable sizing cuvette and measurements were made under conditions defined according to manufacturer's instructions. The measurements were made at 25°C in triplicate and a size distribution report was obtained. […]"}},
  "note": "Where “and” joins values, the source holds several entries; their conditions need not be identical. Identical values can stand only once.",
  "data": [
    {"smiles": "CCCCCCCCCCCCCCCC(=O)OCC(CSC[C@@H](N)C(=O)N[C@@H](CO)C(=O)N[C@@H](CCCCN)C(=O)N[C@@H](CCCCN)C(=O)N[C@@H](CCCCN)C(=O)N[C@H](CCCCN)C(=O)Nc1ccc(Cn2c(O)nc3c(N)nc(NCCCC)nc32)cc1)OC(=O)CCCCCCCCCCCCCCC", "note": "(stereo in doubt) [CL413, (6S,9S,12S,15S,18S,21R)-6,25-diamino-21-(4-((6-amino-2-(butylamino)-8-hydroxy-9H-purin-9-yl)methyl)phenylcarbamoyl)-12,15,18-tris(4-aminobutyl)-9-(hydroxylmethyl)-7,10, 13,16,19-pentaoxo-4-thia-8,11,14,17,20-pentaazapentacosane-1,2-diyl dipalmitate]", "values": [
      {"measurement": "tumor volume", "setting": "B16-F1 tumor; Figure 8A, by day 23, compared to Pam2CSK4 alone, TLR7 ligand alone and vehicle control", "value": "no increase in tumor volume"},
      {"measurement": "mice still alive (survival)", "setting": "B16-F1 tumor; Figure 8B, by day 42", "value": 100, "unit": "%"},
      {"measurement": "ability to transfect B16-F1 cells", "setting": "B16-F1 cells", "value": "lack the ability to transfect cells"},
      {"measurement": "ability to transfect HEK293 cells", "setting": "HEK293 cells", "value": "lack the ability to transfect cells"},
      {"measurement": "Conformity (C)/ Non-conformity (NC)", "setting": "[1]", "value": "C (ranged between 140 and 200 nm in diameter were considered to show conformity)"},
      {"measurement": "Mean Diameter (nm)", "setting": "[1]", "value": "140,1 nm and 140,2 nm and 139,1 nm"},
      {"measurement": "PDI", "setting": "[1]", "value": "0,178 and 0,187 and 0,229"}
    ]},
    {"smiles": "CCCCCCCCCCCCCCCC(=O)N[C@@H](CSCC(COC(=O)CCCCCCCCCCCCCCC)OC(=O)CCCCCCCCCCCCCCC)C(=O)N[C@@H](CO)C(=O)N[C@@H](CCCCN)C(=O)N[C@@H](CCCCN)C(=O)N[C@@H](CCCCN)C(=O)N[C@@H](CCCCN)C(=O)Nc1ccc(Cn2c(O)nc3c(N)nc(NCCCC)nc32)cc1", "note": "(stereo partly drawn) [CL534, ((6R,9S,12S,15S,18S,21S)-25-amino-21-(4-((6-amino-2-(butylamino)-8-hydroxy-9H-purin-9-yl)methyl)phenylcarbamoyl)-12,15,18-tris(4-aminobutyl)-9-(hydroxylmethyl)-7,10,13,16,19-pentaoxo-6-palmitamido-4-thia-8,11,14,17,20-pentaazapentacosane-1,2-diyl dipalmitate]", "values": [
      {"measurement": "ability to transfect B16-F1 cells", "setting": "B16-F1 cells", "value": "lack the ability to transfect cells"},
      {"measurement": "ability to transfect HEK293 cells", "setting": "HEK293 cells", "value": "lack the ability to transfect cells"},
      {"measurement": "Conformity (C)/ Non-conformity (NC)", "setting": "[1]", "value": "C (ranged between 140 and 200 nm in diameter were considered to show conformity)"},
      {"measurement": "Mean Diameter (nm)", "setting": "[1]", "value": "165,5 nm and 187,1 nm and 182,3 nm"},
      {"measurement": "PDI", "setting": "[1]", "value": "0,352 and 0,394 and 0,354"}
    ]}
  ]
}
